From ChEMBL document CHEMBL4834430, “Design and Structure-Activity Relationships of Isothiocyanates as Potent and Selective N-Acylethanolamine-Hydrolyzing Acid Amidase Inhibitors” (J Med Chem, 2021)
The source made the active and inactive calls. The rule behind the calls is not given here.

Columns and labels:
[1] = molecular target: Sodium-dependent serotonin transporter (Homo sapiens) (UniProt P31645); experiment: Inhibition of SERT (unknown origin) at 10 uM
Cytochrome P450 2C9 = Cytochrome P450 2C9 (Homo sapiens, UniProt P11712); experiment: Inhibition of CYP2C9 (unknown origin) at 10 uM; format: ADME
Cytochrome P450 2C9, sequence (P11712 whole entry): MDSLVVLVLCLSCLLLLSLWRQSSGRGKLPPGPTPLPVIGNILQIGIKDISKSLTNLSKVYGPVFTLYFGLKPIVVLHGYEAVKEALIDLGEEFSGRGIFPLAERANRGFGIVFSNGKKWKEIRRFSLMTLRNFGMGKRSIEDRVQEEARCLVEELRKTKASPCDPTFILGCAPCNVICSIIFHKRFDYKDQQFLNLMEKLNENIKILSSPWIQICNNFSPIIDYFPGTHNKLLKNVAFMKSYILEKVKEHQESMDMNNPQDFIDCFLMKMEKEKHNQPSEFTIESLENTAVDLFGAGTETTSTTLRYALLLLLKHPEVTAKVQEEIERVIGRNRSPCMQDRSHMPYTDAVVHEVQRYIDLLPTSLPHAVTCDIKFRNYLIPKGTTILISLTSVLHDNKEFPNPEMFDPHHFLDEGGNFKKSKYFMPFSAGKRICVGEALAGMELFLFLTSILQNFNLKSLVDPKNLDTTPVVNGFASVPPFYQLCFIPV

[2] = MRT in CD-1 mouse plasma at 2 mg/kg, iv measured up to 8 hrs; format: ADME, organism-based
[3] = Mutagenecity in Salmonella typhimurium TA100 in presence of S9 fraction at 5 to 100 uM by Ames test; format: toxicity, subcellular; conditions: salmonella enterica subsp. enterica serovar typhimurium, s9, 100 µM; dose 5-100 µM
[4] = Clearance in CD-1 mouse plasma at 8 mg/kg, po measured up to 8 hrs; format: ADME, organism-based
[5] = Oral bioavailability in CD-1 mouse plasma at 8 mg/kg measured up to 8 hrs; format: ADME, organism-based
[6] = Mutagenecity in Salmonella typhimurium TA98 in absence of S9 fraction at 5 to 100 uM by Ames test; format: toxicity; conditions: salmonella enterica subsp. enterica serovar typhimurium, s9, 100 µM; dose 5-100 µM
[7] = Drug concentration in plasma of CD-1 mouse at 8 mg/kg, po administered as single cassette dose measured after 60 mins; format: ADME, organism-based
[8] = AUC in CD-1 mouse brain at 8 mg/kg, po measured up to 6 hrs; format: ADME, organism-based; design: route oral, dose 8 mg/kg, time <=6
Cytochrome P450 3A4 = Cytochrome P450 3A4 (Homo sapiens, UniProt P08684); experiment: Inhibition of CYP3A4 (unknown origin); format: ADME
Cytochrome P450 3A4, sequence (P08684 whole entry): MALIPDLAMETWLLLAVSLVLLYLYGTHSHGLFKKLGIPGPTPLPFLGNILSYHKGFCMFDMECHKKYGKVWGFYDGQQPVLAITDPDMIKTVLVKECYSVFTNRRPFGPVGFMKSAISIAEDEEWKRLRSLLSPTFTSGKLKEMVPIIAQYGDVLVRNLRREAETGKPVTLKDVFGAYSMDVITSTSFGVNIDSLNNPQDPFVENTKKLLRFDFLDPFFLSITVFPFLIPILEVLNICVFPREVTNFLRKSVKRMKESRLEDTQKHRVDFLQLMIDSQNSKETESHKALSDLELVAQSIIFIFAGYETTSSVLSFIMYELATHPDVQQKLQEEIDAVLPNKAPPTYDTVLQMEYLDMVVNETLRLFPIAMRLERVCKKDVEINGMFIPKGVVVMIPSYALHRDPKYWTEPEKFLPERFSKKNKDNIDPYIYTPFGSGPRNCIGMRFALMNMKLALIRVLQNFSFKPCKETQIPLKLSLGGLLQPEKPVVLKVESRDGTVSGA

[9] = Half life in CD-1 mouse plasma at 2 mg/kg, iv measured up to 8 hrs; format: ADME, organism-based
[10] = Mutagenecity in Salmonella typhimurium TA1535 in presence of S9 fraction at 5 to 100 uM by Ames test; format: toxicity, subcellular; conditions: salmonella enterica subsp. enterica serovar typhimurium, s9, 100 µM; dose 5-100 µM
[11] = Drug concentration in plasma of CD-1 mouse at 2 mg/kg, iv administered as single cassette dose measured after 15 mins; format: ADME, organism-based
[12] = Mutagenecity in Salmonella typhimurium TA1537 in presence of S9 fraction at 5 to 100 uM by Ames test; format: toxicity, subcellular; conditions: salmonella enterica subsp. enterica serovar typhimurium, s9, 100 µM; dose 5-100 µM
[13] = Mutagenecity in Salmonella typhimurium TA98 in presence of S9 fraction at 5 to 100 uM by Ames test; format: toxicity, subcellular; conditions: salmonella enterica subsp. enterica serovar typhimurium, s9, 100 µM; dose 5-100 µM
[14] = Mutagenecity in Salmonella typhimurium TA1535 in absence of S9 fraction at 5 to 100 uM by Ames test; format: toxicity; conditions: salmonella enterica subsp. enterica serovar typhimurium, s9, 100 µM; dose 5-100 µM
[15] = MRT in CD-1 mouse plasma at 8 mg/kg, po measured up to 8 hrs; format: ADME, organism-based
[16] = molecular target: Cannabinoid receptor 2 (Mus musculus) (UniProt P47936); experiment: Displacement of [3H]-CP55940 from mouse CB2 receptor expressed in HEK293 cell membrane at 10 uM; format: cell membranes
Cannabinoid receptor 2 (Mus musculus), sequence (P47936 whole entry): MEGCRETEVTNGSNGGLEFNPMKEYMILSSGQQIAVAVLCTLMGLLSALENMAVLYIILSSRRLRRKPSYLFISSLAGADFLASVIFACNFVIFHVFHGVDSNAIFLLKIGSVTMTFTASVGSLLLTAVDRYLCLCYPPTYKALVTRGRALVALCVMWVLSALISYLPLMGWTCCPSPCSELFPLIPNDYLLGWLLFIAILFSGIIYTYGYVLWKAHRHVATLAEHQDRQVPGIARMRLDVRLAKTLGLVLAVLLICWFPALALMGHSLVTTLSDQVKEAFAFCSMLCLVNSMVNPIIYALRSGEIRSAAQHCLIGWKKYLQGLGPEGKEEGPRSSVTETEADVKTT

[17] = AUC in CD-1 mouse plasma at 2 mg/kg, iv measured up to 8 hrs; format: ADME, organism-based; design: route intravenous, dose 2 mg/kg, time <=8
Cytochrome P450 2A6 = molecular target: T1, Cytochrome P450 2A6 (Homo sapiens, UniProt P11509); experiment: Inhibition of CYP2A6 (unknown origin) at 10 uM; format: ADME
T1 sequence (P11509 whole entry): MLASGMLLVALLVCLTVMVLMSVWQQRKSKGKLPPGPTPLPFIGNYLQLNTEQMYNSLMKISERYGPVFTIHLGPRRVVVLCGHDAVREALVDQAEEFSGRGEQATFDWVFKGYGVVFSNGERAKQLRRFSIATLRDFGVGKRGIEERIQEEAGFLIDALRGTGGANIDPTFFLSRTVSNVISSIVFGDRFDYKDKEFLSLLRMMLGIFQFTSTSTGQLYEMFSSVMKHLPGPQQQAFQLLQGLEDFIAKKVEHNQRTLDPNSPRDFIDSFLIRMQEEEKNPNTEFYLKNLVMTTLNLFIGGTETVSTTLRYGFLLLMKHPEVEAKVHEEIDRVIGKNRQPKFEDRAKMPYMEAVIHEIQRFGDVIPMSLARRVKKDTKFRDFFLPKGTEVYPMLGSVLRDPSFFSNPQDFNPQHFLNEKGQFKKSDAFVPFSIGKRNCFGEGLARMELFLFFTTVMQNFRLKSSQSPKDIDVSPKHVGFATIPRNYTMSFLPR

Cytochrome P450 2C19 = Cytochrome P450 2C19 (Homo sapiens, UniProt P33261); experiment: Inhibition of CYP2C19 (unknown origin); format: ADME
Cytochrome P450 2C19, sequence (P33261 whole entry): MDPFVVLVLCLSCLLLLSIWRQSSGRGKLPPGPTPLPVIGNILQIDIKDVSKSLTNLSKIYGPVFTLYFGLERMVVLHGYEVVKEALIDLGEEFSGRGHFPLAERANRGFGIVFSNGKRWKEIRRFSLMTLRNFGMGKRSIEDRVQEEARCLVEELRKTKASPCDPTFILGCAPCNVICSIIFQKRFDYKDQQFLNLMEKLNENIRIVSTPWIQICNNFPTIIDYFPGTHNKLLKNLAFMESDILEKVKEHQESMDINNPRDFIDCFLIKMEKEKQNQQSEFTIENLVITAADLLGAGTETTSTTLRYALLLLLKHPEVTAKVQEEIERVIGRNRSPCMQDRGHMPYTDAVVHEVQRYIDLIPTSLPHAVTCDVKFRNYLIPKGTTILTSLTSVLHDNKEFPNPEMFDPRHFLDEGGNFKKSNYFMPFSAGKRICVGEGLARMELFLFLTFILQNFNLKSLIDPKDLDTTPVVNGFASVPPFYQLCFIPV

[18] = Drug concentration in brain of CD-1 mouse at 2 mg/kg, iv administered as single cassette dose measured after 15 mins; format: ADME, organism-based; conditions: read-out: Ct
[19] = Clearance in CD-1 mouse plasma at 2 mg/kg, iv measured up to 8 hrs; format: ADME, organism-based
[20] = Ratio of drug concentration in brain to plasma in CD-1 mouse at 8 mg/kg, po; format: ADME, organism-based; conditions: read-out: BPR
[21] = Half life in mouse liver microsomes at 1 uM in presence of NADPH by LC-MS/MS analysis; format: ADME, Microsome
[22] = Ratio of drug concentration in brain to plasma in CD-1 mouse at 2 mg/kg, iv; format: ADME, organism-based; conditions: read-out: BPR
[23] = molecular target: Cannabinoid receptor 1 (Rattus norvegicus) (UniProt P20272); experiment: Displacement of [3H]-CP55940 from rat forebrain CB1 receptor at 10 uM
Cannabinoid receptor 1 (Rattus norvegicus), sequence (P20272 whole entry): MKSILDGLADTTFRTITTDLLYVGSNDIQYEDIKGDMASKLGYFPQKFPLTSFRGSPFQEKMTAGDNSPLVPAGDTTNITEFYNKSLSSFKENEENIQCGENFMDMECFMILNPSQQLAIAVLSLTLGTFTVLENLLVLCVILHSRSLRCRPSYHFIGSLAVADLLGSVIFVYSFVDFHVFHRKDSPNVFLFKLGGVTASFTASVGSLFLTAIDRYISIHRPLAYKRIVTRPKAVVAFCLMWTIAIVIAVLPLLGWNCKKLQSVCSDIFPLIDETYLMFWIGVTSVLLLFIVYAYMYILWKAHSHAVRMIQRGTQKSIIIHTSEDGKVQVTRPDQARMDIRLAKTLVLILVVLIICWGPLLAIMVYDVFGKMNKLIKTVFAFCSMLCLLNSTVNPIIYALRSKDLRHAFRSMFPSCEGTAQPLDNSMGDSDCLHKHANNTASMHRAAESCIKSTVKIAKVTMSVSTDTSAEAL

Cathepsin K = molecular target: T2, Cathepsin K (Homo sapiens, UniProt P43235); experiment: Inhibition of recombinant human Cathepsin K using Z-Phe-Arg-AMC as fluorogenic substrate preincubated for 120 mins followed by substrate addition by fluorescence assay
T2 sequence (P43235 whole entry): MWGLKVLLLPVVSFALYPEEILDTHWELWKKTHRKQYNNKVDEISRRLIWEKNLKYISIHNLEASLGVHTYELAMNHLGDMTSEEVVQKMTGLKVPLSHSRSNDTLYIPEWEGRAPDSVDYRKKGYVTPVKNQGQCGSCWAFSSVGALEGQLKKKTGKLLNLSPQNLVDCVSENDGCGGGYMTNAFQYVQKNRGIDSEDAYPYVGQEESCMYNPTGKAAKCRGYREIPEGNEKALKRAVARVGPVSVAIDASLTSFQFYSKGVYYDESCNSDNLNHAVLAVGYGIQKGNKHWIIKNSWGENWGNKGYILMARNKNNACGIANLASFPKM

[24] = Volume of distribution in CD-1 mouse plasma at 8 mg/kg, po measured up to 8 hrs; format: ADME, organism-based; conditions: in vivo

Sodium-dependent serotonin transporter (Homo sapiens), sequence (P31645 whole entry, looked up): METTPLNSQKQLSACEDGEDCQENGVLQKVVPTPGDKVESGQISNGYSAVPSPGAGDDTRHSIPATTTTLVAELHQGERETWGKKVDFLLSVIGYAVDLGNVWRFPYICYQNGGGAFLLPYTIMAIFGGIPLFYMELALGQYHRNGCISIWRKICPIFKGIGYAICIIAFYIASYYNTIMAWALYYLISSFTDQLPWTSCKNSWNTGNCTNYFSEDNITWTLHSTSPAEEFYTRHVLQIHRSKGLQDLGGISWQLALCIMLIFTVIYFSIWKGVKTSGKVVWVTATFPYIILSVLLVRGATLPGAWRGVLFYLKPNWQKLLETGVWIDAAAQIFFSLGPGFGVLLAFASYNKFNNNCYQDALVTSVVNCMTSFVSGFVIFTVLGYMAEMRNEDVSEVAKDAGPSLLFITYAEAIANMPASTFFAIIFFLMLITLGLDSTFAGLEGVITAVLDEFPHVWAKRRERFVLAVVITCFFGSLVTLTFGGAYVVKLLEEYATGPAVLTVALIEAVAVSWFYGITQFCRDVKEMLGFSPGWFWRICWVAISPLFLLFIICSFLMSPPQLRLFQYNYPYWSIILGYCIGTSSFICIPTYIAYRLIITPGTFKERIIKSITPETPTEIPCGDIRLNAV

In the case of COc1ccc(-c2ccc(CO[C@H]3C[C@@H](N=C=S)C3)nc2)cc1F, the inhibition [1] is reported as “inactive”, the “inhibition (INH)” value (Cytochrome P450 2C9) is reported as “Not Active” and the MRT [2] is reported as 20.3 min. For the same compound, the Activity [3] was “Non-Toxic”, the CL/F [4] was 2760 mL/min/kg and the bioavailability [5] was 13%. For the same compound, the Activity [6] was “Non-Toxic”, the concentration at 1 h [7] was 54 ng/mL and the AUC at 6 h [8] was 10.3 ng·h/mL. For the same compound, the IC50 (Cytochrome P450 3A4) was 2.6 µM, the half-life [9] was 45.5 min and the Activity [10] was “Non-Toxic”. For the same compound, the concentration at 0.25 h [11] was 189 ng/mL, the Activity [12] was “Non-Toxic” and the Activity [13] was “Non-Toxic”. For the same compound, the Activity [14] was “Non-Toxic”, the MRT [15] was 64.2 min and the inhibition [16] was “inactive”. The AUC at 8 h [17] was 78.5 ng·h/mL, the “inhibition (INH)” value (Cytochrome P450 2A6) was “Not Active” and the IC50 (Cytochrome P450 2C19) was 3.3 µM. The concentration at 0.25 h [18] was 873 ng/g, the clearance [19] was 412 mL/min/kg and the Kp [20] was 0.25. For the same compound, the half-life at 1 µM [21] was 28.2 min, the Kp [22] was 3.8 and the inhibition [23] was “inactive”. For the same compound, the IC50 (Cathepsin K) was 0.12 µM and the Vd [24] was 126 L/kg.
